Measured values taken from US20030109702A1, “Pyrazolyl benzyl ethers” (priority 1999, published 2003).

What was measured:
[1] = system: green peach aphid (Myzus persicae); assay: Myzus test; format: in vivo; details: broad bean seedlings dipped, concentration of active compound 1000 ppm
Method: [table] To produce a suitable preparation of active compound, 1 part by weight of active compound is mixed with the stated amount of solvent and the stated amount of emulsifier, and the concentrate is diluted with emulsifier-containing water to the desired concentrations. Broad bean seedlings (Vicia faba) infested by the green peach aphid (Myzus persicae) are dipped into a preparation of active compound of the desired concentration and placed into a dish made of plastic. After the desired period of time, the kill in % is determined. 100% means that all of the animals have been killed; 0% means that none of the animals have been killed.

[2] = system: Meloidogyne incognita; assay: Meloidogyne test; format: in vivo; details: lettuce in sand, concentration of active compound 20 ppm
Method: [table] To produce a suitable preparation of active compound, 1 part by weight of active compound is mixed with the stated amounts of solvent and emulsifier, and the concentrate is diluted with water to the desired concentration. Containers are filled with sand, solution of active compound, Meloidogyne incognita egg/larvae suspension and lettuce seeds. The lettuce seeds germinate and the plants develop. On the roots, galls are formed. After the desired period of time, the nematicidal action is determined in % via the formation of galls. 100% means that no galls were found; 0% means that the number of galls on the treated plants corresponds to that on the untreated control.

[3] = physchem

chromatographic logP [3] | SMILES | also measured
– | CON=C(C1=NOCCO1)c1ccccc1COc1ccn(-c2ccc(Cl)cc2)n1 [Example 1, [2-({[1-(4-chlorophenyl)-1H-pyrazol-3-yl]oxy}methyl)phenyl](5,6-dihydro-1,4,2-dioxazin-3-yl)methanone O-methyl oxime] | kill rate [1]: 90%; kill rate (nematicidal action via the formation of galls) [2]: 100%
3.21 | CON=C(C1=NOCCO1)c1ccccc1COc1ccn(-c2ccccc2Br)n1 [Example 2] | –
3.67 | CON=C(C1=NOCCO1)c1ccccc1COc1ccn(-c2ccc(Br)cc2)n1 [Example 3] | –
3.15 | CON=C(C1=NOCCO1)c1ccccc1COc1ccn(-c2ccc(F)cc2)n1 [Example 4] | –
3.4 | CON=C(C1=NOCCO1)c1ccccc1COc1ccn(-c2ccc(C)cc2)n1 [Example 5] | –
4.02 | CON=C(C1=NOCCO1)c1ccccc1COc1ccn(-c2ccc(Cl)c(Cl)c2)n1 [Example 6] | –
4.24 | CON=C(C1=NOCCO1)c1ccccc1COc1ccn(-c2cc(Cl)cc(Cl)c2)n1 [Example 7] | –
3.59 | CON=C(C1=NOCCO1)c1ccccc1COc1ccn(-c2cccc(Cl)c2)n1 [Example 8] | –
3.2 | CON=C(C1=NOCCO1)c1ccccc1COc1ccn(-c2ccccc2Cl)n1 [Example 9] | –
3.68 | CON=C(C1=NOCCO1)c1ccccc1COc1ccn(-c2cccc(Br)c2)n1 [Example 10] | –
3.15 | CON=C(C1=NOCCO1)c1ccccc1COc1ccn(-c2ccccc2C)n1 [Example 11] | –
2.89 | CON=C(C1=NOCCO1)c1ccccc1COc1ccn(-c2ccc(C#N)cc2)n1 [Example 12] | kill rate (nematicidal action via the formation of galls) [2]: 100%
3.06 | CON=C(C1=NOCCO1)c1ccccc1COc1ccn(-c2ccccc2)n1 [Example 13] | –
3.78 | CON=C(C1=NOCCO1)c1ccccc1COc1ccn(-c2ccc(Cl)cc2Cl)n1 [Example 14] | –
4.33 | CON=C(C1=NOCCO1)c1ccccc1COc1ccn(-c2ccc(C(C)(C)C)cc2)n1 [Example 15] | –
4.08 | CON=C(C1=NOCCO1)c1ccccc1COc1ccn(-c2ccc(C(C)C)cc2)n1 [Example 16] | –
4.08 | CON=C(C1=NOCCO1)c1ccccc1COc1ccn(-c2c(Cl)cccc2Cl)n1 [Example 17] | –
3.59 | CON=C(C1=NOCCO1)c1ccccc1COc1ccn(-c2cccc(Cl)c2Cl)n1 [Example 18] | –
3.28 | CON=C(C1=NOCCO1)c1ccccc1COc1ccn(-c2ccc(F)cc2F)n1 [Example 19] | –
3.19 | CON=C(C1=NOCCO1)c1ccccc1COc1ccn(-c2ccccc2F)n1 [Example 20] | –
3.24 | CON=C(C1=NOCCO1)c1ccccc1COc1ccn(-c2cccc(F)c2)n1 [Example 21] | –

chromatographic logP [3] | SMILES | also measured
3.52 | CON=C(C1=NOCCO1)c1ccccc1COc1ccn(-c2cc(C)ccc2C)n1 [Example 22] | –
3.74 | CON=C(C1=NOCCO1)c1ccccc1COc1ccn(-c2c(Cl)cc(Cl)cc2Cl)n1 [Example 24] | –
3.5 | CON=C(C1=NOCCO1)c1ccccc1COc1ccn(-c2ccc(C)cc2C)n1 [Example 25] | –
3.47 | CCc1ccccc1-n1ccc(OCc2ccccc2C(=NOC)C2=NOCCO2)n1 [Example 26] | –
3.74 | CON=C(C1=NOCCO1)c1ccccc1COc1ccn(-c2cc(Cl)ccc2Cl)n1 [Example 27] | –
3.68 | CON=C(C1=NOCCO1)c1ccccc1COc1ccn(-c2cccc(C)c2C)n1 [Example 28] | –
3.68 | CON=C(C1=NOCCO1)c1ccccc1COc1ccn(-c2ccc(C)c(C)c2)n1 [Example 29] | –
3.79 | CON=C(C1=NOCCO1)c1ccccc1COc1ccn(-c2cc(C)cc(C)c2)n1 [Example 30] | –
3.51 | CON=C(C1=NOCCO1)c1ccccc1COc1ccn(-c2cccc3ccccc23)n1 [Example 31] | –
3.11 | CON=C(C1=NOCCO1)c1ccccc1COc1ccn(Cc2cccc(C)c2)n1 [Example 32] | –
3.97 | CON=C(C1=NOCCO1)c1ccccc1COc1ccn(Cc2ccc(C(C)(C)C)cc2)n1 [Example 33] | –
2.79 | CON=C(C1=NOCCO1)c1ccccc1COc1ccn(Cc2ccccc2)n1 [Example 35] | –
3.19 | CON=C(C1=NOCCO1)c1ccccc1COc1ccn(Cc2ccc(Cl)cc2)n1 [Example 36] | –
3 | CON=C(C1=NOCCO1)c1ccccc1COc1ccn(-c2ccc(OC)cc2)n1 [Example 39] | –
3.76 | CCc1ccc(-n2ccc(OCc3ccccc3C(=NOC)C3=NOCCO3)n2)cc1 [Example 42] | –
3.43 | CCOc1ccccc1-n1ccc(OCc2ccccc2C(=NOC)C2=NOCCO2)n1 [Example 43] | –
2.61 | C=CCn1ccc(OCc2ccccc2C(=NOC)C2=NOCCO2)n1 [Example 44] | –
3.84 | CON=C(C1=NOCCO1)c1ccccc1COc1ccn(-c2ccc(I)cc2)n1 [Example 46] | –
2.87 | CON=C(C1=NOCCO1)c1ccccc1COc1ccn(-c2ccccc2OC)n1 [Example 48] | –
3.52 | CON=C(C1=NOCCO1)c1ccccc1COc1ccn(CC2CCCCC2)n1 [Example 334] | –
